Source: patent US20240041877A1, “DOSAGE REGIME AND METHOD FOR TREATING PULMONARY ARTERIAL HYPERTENSION” (Altavant Sciences GmbH, priority 2019, published 2024)

Assay: Part 2 (MAD): plasma pharmacokinetics after BID oral KAR5585 for 14 days (incl. accumulation ratios and dose proportionality)
[1] = KAR5585 100 mg BID fed, Cohort 2, Day 1 PM, mean
[2] = KAR5585 100 mg BID fed, Cohort 2, Day 7 AM, Day 7/Day 1 accumulation ratio, geo. mean
[3] = KAR5585 100 mg BID fed, Cohort 2, Day 7 AM, Day 7/Day 1 accumulation ratio, mean
[4] = KAR5585 100 mg BID fed, Cohort 2, Day 7 AM, geo. mean
[5] = KAR5585 100 mg BID fed, Cohort 2, Day 7 AM, mean
[6] = KAR5585 100 mg BID fed, Cohort 2, Day 7 PM, Day 7/Day 1 accumulation ratio, geo. mean
[7] = KAR5585 100 mg BID fed, Cohort 2, Day 7 PM, Day 7/Day 1 accumulation ratio, mean
[8] = KAR5585 100 mg BID fed, Cohort 2, Day 7 PM, geo. mean
[9] = KAR5585 100 mg BID fed, Cohort 2, Day 7 PM, mean
[10] = KAR5585 100 mg BID fed, Cohort 2, Day 14 AM, Day 14/Day 1 accumulation ratio, geo. mean
[11] = KAR5585 100 mg BID fed, Cohort 2, Day 14 AM, Day 14/Day 1 accumulation ratio, mean
[12] = KAR5585 100 mg BID fed, Cohort 2, Day 14 AM, geo. mean
[13] = KAR5585 100 mg BID fed, Cohort 2, Day 14 AM, mean
[14] = KAR5585 200 mg BID fed, Cohort 3, Day 1 AM, geo. mean
[15] = KAR5585 200 mg BID fed, Cohort 3, Day 1 AM, mean
[16] = KAR5585 200 mg BID fed, Cohort 3, Day 1 PM, geo. mean

Text: Food effect was to be evaluated in Part 1, Period 2.
Pharmacokinetic data were to be summarized descriptively.

With Nc1nc(O[C@H](c2ccc(Cl)cc2-c2ccccc2)C(F)(F)F)cc(N2CCC3(CC2)CN[C@H](C(=O)O)C3)n1 [KAR5417, (S)-8-(2-amino-6-((R)-1-(5-chloro-[1,1T-biphenyl]-2-yl)-2,2,2-trifluoroeth-oxy)pyrimidin-4-yl)-2,8-diazaspiro[4.5]decane-3-carboxylic acid] the “AUC0-∞” value [1] was 1140 ng·h/mL, the C12 [1] was 43.1 ng/mL and the Cmax [1] was 130 ng/mL. For the same compound, the Cmax/D [1] was 1.3 (ng/ml)/mg, the t1/2 [1] was 7.00 h and the RAUC0-12 [2] was 2.45. It also gave an RCmax [2] of 2.02, an RAUC0-12 [3] of 2.57 and an RCmax [3] of 2.07. The AUC0-12 [4] was 1050 ng·h/mL, the “AUC0-∞” value [4] was 1380 ng·h/mL and the C12 [4] was 44.3 ng/mL. For the same compound, the Cmax/D [4] was 1.60 (ng/ml)/mg, the t1/2 [4] was 5.24 h and the AUC0-12 [5] was 1080 ng·h/mL. The “AUC0-∞” value [5] was 1410 ng·h/mL, the C12 [5] was 45.1 ng/mL and the Cmax [5] was 168 ng/mL. For the same compound, the Cmax/D [5] was 1.68 (ng/ml)/mg, the t1/2 [5] was 5.31 h and the RAUC0-12 [6] was 2.04. It also gave an RCmax [6] of 1.34, an RAUC0-12 [7] of 2.19 and an RCmax [7] of 1.43. The AUC0-12 [8] was 875 ng·h/mL, the AUC0-24 [8] was 1930 ng·h/mL and the AUC0-24/D [8] was 9.64 (hr*ng/ml)/mg. The “AUC0-∞” value [8] was 1700 ng·h/mL, the C12 [8] was 61.4 ng/mL and the Cmax [8] was 106 ng/mL. The Cmax/D [8] was 1.06 (ng/ml)/mg, the t1/2 [8] was 7.91 h and the AUC0-12 [9] was 902 ng·h/mL. For the same compound, the AUC0-24 [9] was 1990 ng·h/mL, the AUC0-24/D [9] was 9.93 (hr*ng/ml)/mg and the “AUC0-∞” value [9] was 1730 ng·h/mL. The C12 [9] was 62.3 ng/mL, the Cmax/D [9] was 1.12 (ng/ml)/mg and the t1/2 [9] was 8.10 h. For the same compound, the RAUC0-12 [10] was 2.09, the RCmax [10] was 1.90 and the RAUC0-12 [11] was 2.23. The RCmax [11] was 1.98, the AUC0-12 [12] was 900 ng·h/mL and the AUC0-24 [12] was 1220 ng·h/mL. The “AUC0-∞” value [12] was 1780 ng·h/mL, the C12 [12] was 35.4 ng/mL and the C24 [12] was 19.3 ng/mL. The Cmax [12] was 155 ng/mL, the Cmax/D [12] was 1.55 (ng/ml)/mg and the t1/2 [12] was 19.0 h. The AUC0-12 [13] was 943 ng·h/mL, the AUC0-24 [13] was 1270 ng·h/mL and the “AUC0-∞” value [13] was 1830 ng·h/mL. For the same compound, the C12 [13] was 36.4 ng/mL, the C24 [13] was 19.6 ng/mL and the Cmax [13] was 168 ng/mL. The Cmax/D [13] was 1.68 (ng/ml)/mg, the t1/2 [13] was 19.6 h and the AUC0-12 [14] was 1620 ng·h/mL. For the same compound, the “AUC0-∞” value [14] was 1980 ng·h/mL, the C12 [14] was 56.6 ng/mL and the Cmax [14] was 336 ng/mL. The Cmax/D [14] was 1.68 (ng/ml)/mg, the t1/2 [14] was 4.41 h and the AUC0-12 [15] was 1700 ng·h/mL. For the same compound, the C12 [15] was 60.7 ng/mL, the Cmax [15] was 357 ng/mL and the Cmax/D [15] was 1.79 (ng/ml)/mg. The t1/2 [15] was 4.49 h, the AUC0-12 [16] was 1910 ng·h/mL and the AUC0-24 [16] was 3540 ng·h/mL. For the same compound, the AUC0-24/D [16] was 8.85 (hr*ng/ml)/mg, the “AUC0-∞” value [16] was 2640 ng·h/mL and the C12 [16] was 102 ng/mL. For the same compound, the Cmax [16] was 307 ng/mL and the Cmax/D [16] was 1.54 (ng/ml)/mg.
